This is an account of results in patent publication US20220308068A1, “BIOMARKER IN OSTEOPOROSIS INTERVENTION THERAPY BY BONE PEPTIDE, SCREENING METHOD AND USE THEREOF” (Institute of Food Science and Technology, Chinese Academy …, priority 2019, published 2022).

Test [1] deals with ovariectomized osteoporosis rat model. As to the kind of experiment: serum bone turnover markers by automatic serum biochemical analyzer. It is filed as in vivo, SD rats. On the procedure: 1, the construction of ovariectomized rats models: SD rats are kept in a clean environment under a controlled room temperature at 25±2° C. and alternates 12/12 light and dark every day, and the SD rats feed freely. After one week adaptive feeding, randomly select 8 female rats, anesthetize them with 1% (v/v) pentobarbital sodium (40 mg/kg BW), and remove a little fat near ovaries. The remaining 40 rats are ovariectomized after being anesthetized with pentobarbital sodium. The recovery situation is observed in a 4-week recovery period, and their weight changes are detected. These are prepared by the applicant in advance. (any research about metabolic fingerprint changes of ovariectomized osteoporotic rats after intervention with bone peptide have not been reported according to the existing literature). 2, animal grouping and samples collection: the 8 female rats with a little fat near ovaries removed are selected as a sham-operated group, the ovariectomized 40 rats are randomly divided into 5 groups with 8 rats in each group, and are named by a negative control group, a positive control group, a low-concentration treatment group, a medium-concentration treatment group and a high-concentration treatment group. The rats are perfused by different solutions of bovine bone peptide (diluted by ultrapure water, and sterilized) with concentration of 100 mg/kg, 200 mg/kg, and 500 mg/kg according to the weights of the rats. The rats in the negative control group are perfused with equal volume of ultrapure sterile water (a perfusing volume is generally 1-2 mL/100 g BW), and the rats in the positive control group are perfused with 50 μg/kg of 17β-estradiol (ES). Observe weight changes of the rats and measure the weights every two weeks. Urine is automatically collected with a metabolic cage for 12 hours every 4 weeks (the urine is collected as much as possible under the premise of ensuring normal signs of the rats). 1 mmol/L NaN3 solution is added into collected urine as a preservative, the collected urine is placed in a centrifuge at 4° C. and centrifuged at a speed of 10000×g for 10 minutes, and the supernatant is collected, distributed and stored in a refrigerator at −80° C. for determining. The rats are fasted for 12 hours at 4th week, 8th week, and 12th week. Fasted rats are anesthetized by intraperitoneal injection of pentobarbital sodium (40 mg/kg BW) with a volume concentration of 1%, and are subjected to blood collection from the abdominal aorta (the blood is collected as much as possible under the premise of ensuring normal signs of the rats). Collected blood is placed at 4° C. for 3 h and is centrifuged (5000 rpm) for 10 minutes. Upper serum is collected (collecting 2 mL of blood, separating into 4 tubes after separating the serum), is divided into 0.5 mL EP tubes, and stored in a refrigerator at −80° C. for later use. The metabolic cage comprises a cage body with a bottom and a metabolite collecting part. The metabolite collecting part is arranged below the cage body and comprises a barrel 1 and a cover 2 mounted on an upper end of a peripheral wall of a first side of the barrel, an upper end of a peripheral wall of a second side of the barrel is provided with a drainage port, and a solid-liquid separating part is arranged in the barrel. The solid-liquid separating part comprises an arc-shaped partition plate 3 with a first end fixed with a peripheral wall of the barrel and multi-stage filter plates 4, which divide an inner space of the barrel into a first accommodating space and a second accommodating space. The multi-stage filter plates are arranged in the second accommodating space along a vertical direction, and the multi-stage filter plates are successively arranged end to end to form a folded-line diversion channel. A depth of a bottom wall of the barrel from the first side to the second side becomes larger. […]

For test [2] the test system is unchanged. As to the kind of experiment: Micro-CT of right femurs. It is filed as in vivo, SD rats. The conditions noted are these: vs Model group. On the procedure:
1, the construction of ovariectomized rats models: SD rats are kept in a clean environment under a controlled room temperature at 25±2° C. and alternates 12/12 light and dark every day, and the SD rats feed freely. After one week adaptive feeding, randomly select 8 female rats, anesthetize them with 1% (v/v) pentobarbital sodium (40 mg/kg BW), and remove a little fat near ovaries. The remaining 40 rats are ovariectomized after being anesthetized with pentobarbital sodium. The recovery situation is observed in a 4-week recovery period, and their weight changes are detected. These are prepared by the applicant in advance. (any research about metabolic fingerprint changes of ovariectomized osteoporotic rats after intervention with bone peptide have not been reported according to the existing literature). 2, animal grouping and samples collection: the 8 female rats with a little fat near ovaries removed are selected as a sham-operated group, the ovariectomized 40 rats are randomly divided into 5 groups with 8 rats in each group, and are named by a negative control group, a positive control group, a low-concentration treatment group, a medium-concentration treatment group and a high-concentration treatment group. The rats are perfused by different solutions of bovine bone peptide (diluted by ultrapure water, and sterilized) with concentration of 100 mg/kg, 200 mg/kg, and 500 mg/kg according to the weights of the rats. The rats in the negative control group are perfused with equal volume of ultrapure sterile water (a perfusing volume is generally 1-2 mL/100 g BW), and the rats in the positive control group are perfused with 50 μg/kg of 17β-estradiol (ES). Observe weight changes of the rats and measure the weights every two weeks. After perfusing experiment, the rats are sacrificed in accordance with the animal welfare operating procedures, femurs and tibias on both sides are taken, and soft tissues such as muscle and fascia attached to bone tissues are removed. The right tibias are subjected to paraffin-embedded H&E staining treatment after fixing in a phosphate-formalin buffer for 24 hours for morphometric analysis of the tibias of the rats. Left femurs and right femurs is soaked with normal saline, washed repeatedly for 3 times, wrapped with medical gauzes (pre-soaked with normal saline) and tinfoil, and then stored in a −20° C. refrigerator for trabecular bone microstructure (micro-CT scanning) and mechanical strength tests of bone biomechanical indexes (three-point bending test). In the screening method of the biomarkers in the anti-osteoporosis activity of bone peptide, the specific implementation steps of determining biomechanical indexes of the right femurs of the rats by the Micro-CT method are as follows: determining femur microstructures by Micro Computed Tomography (Micro-CT, Inveon-type, SIEMENS, Germany) with scanning parameters: a span voltage of 80 kV, a scanning current of 500 μA, and a scanning thickness (resolution) of […] Region of interest (ROI) of femurs starts from 1 mm below a bone tissue growth-plate. Scan the layers downward and sequentially. Select the bone tissue with a thickness of 100 layers as cancellous ROI for three-dimensional reconstruction to obtain a visualized 3D image. The obtained scanning data are subjected to morphometric calculation of femur tissues using Inveon Research Workplace software (SIEMENS, Germany). […]

Where [3] appears, read: treatment groups and ES group vs Model group.
The mark [4] stands for this setting: vs Model group, P<0.05, YBP 100/200/500 mg/kg, ES 50 μg/kg perfused.

For the compound `C[C@]12CC[C@@H]3c4ccc(O)cc4CC[C@H]3[C@@H]1CC[C@@H]2O` [ES, 17β-estradiol], in test [1] (setting [3]), the “content of DPD” value is “on a decline trend”, the “content of PINP” value was “on a decline trend”, the “content of S-CTX” value was “on a decline trend” and the “content of TRAP” value is “on a decline trend”. In addition, in test [1] (setting [4]), the “content of B-ALP (bone alkaline phosphatase)” value is given as “significantly increased” and the “content of BGP (bone gamma-carboxyglutamic acid containing proteins)” value is reported as “significantly increased”. Further, the “osteoporosis of the rats (three dimensional reconstruction of femur bone microstructures)” value in test [2] (after treatment) is on record as “improved to a certain extent”. Besides, in test [2] (right femur), the “bone volume fraction (BV/TV)” value was “on a rise trend”, the “trabecular bone density (Tb.BMD)” value is reported as “on a rise trend”, the “trabecular bone number (Tb.N)” value was “on a rise trend” and the “trabecular bone thickness (Tb.Th)” value was “on a rise trend”.
